≈ marks a conversion by molar mass, not a printed value. Like-named read-outs stand apart in the source and are kept apart here.
Key:
[1] = tested on: BVDV NADL cp in MDBK cells; assay: Yield reduction assay; format: cell-based, bovine viral diarrhea virus
[2] = tested on: BVDV New York-1 ncp in MDBK cells; assay: Yield reduction assay; format: cell-based, bovine viral diarrhea virus
[3] = tested on: BVDV I-NADL cp in MDBK cells; assay: Yield reduction assay; format: cell-based; details: Bovine viral diarrhea virus isolates and strains
Experimental: For each compound the concentration to obtain a 6-log reduction in viral load was determined in duplicate 24-well plates by yield reduction assays. The assay was performed as described by Baginski, S. G.; Pevear, D. C.; Seipel, M.; Sun, S. C. C.; Benetatos, C. A.; Chunduru, S. K.; Rice, C. M. and M. S. Collett “Mechanism of action of a pestivirus antiviral compound” PNAS USA 2000, 97(14), 7981-7986, with minor modifications. Briefly, MDBK cells were seeded onto 24-well plates (2×10^5 cells per well) 24 hours before infection with BVDV (NADL strain) at a multiplicity of infection (MOI) of 0.1 PFU per cell. Serial dilutions of test compounds were added to cells in a final concentration of 0.5% DMSO in growth medium. Each dilution was tested in triplicate. After three days, cell cultures (cell monolayers and supernatants) were lysed by three freeze-thaw cycles, and virus yield was quantified by plaque assay. Briefly, MDBK cells were seeded onto 6-well plates (5×10^5 cells per well) 24 h before use. Cells were inoculated with 0.2 mL of test lysates for 1 hour, washed and overlaid with 0.5% agarose in growth medium. After 3 days, cell monolayers were fixed with 3.5% formaldehyde and stained with 1% crystal violet (w/v in 50% ethanol) to visualize plaques. The plaques were counted to determine the concentration to obtain a 6-log reduction in viral load.

DENV-4 in BHK cells = assay: Cell protection assay; format: cell-based; details: Dengue virus, DENV4, DENV-4, BHK
YFV = assay: microbe, parasite or virus in culture; format: cell-based; details: Yellow fever virus, read-out: YFV (Table 8b)
CVB-2 = assay: Antiviral test (Tables 8b, 8c); format: cell-based, Coxsackievirus B-2; details: Coxsackievirus
CVB-3 = assay: microbe, parasite or virus in culture; format: cell-based, Coxsackievirus B-3; details: Coxsackievirus, read-out: EC50 CVB-3
CVA-9 = assay: microbe, parasite or virus in culture; format: cell-based, Coxsackievirus A-9; details: Coxsackievirus, read-out: EC50 CVA-9
EBV (Daudi) = assay: microbe, parasite or virus in culture; format: cell-based; details: human gammaherpesvirus 4, Daudi
MCMV (MEF) = assay: organism not typed; format: cell-based
[4] = tested on: Parainfluenzatype 3 (MA-104); assay: organism not typed; format: cell-based; details: MA104
Cytotoxicity (Table 10) [5] = format: cell-based; details: human, Daudi cells, EBV row
West Nile virus = assay: microbe, parasite or virus in culture; format: cell-based; details: read-out: composite EC50 range, West Nile virus
[6] = tested on: different strains of BVDV; assay: BVDV cell protection, plaque reduction and yield reduction assays, summary over strains; format: cell-based; details: Bovine viral diarrhea virus isolates and strains, all three assays
[7] = tested on: BVDV (strain I-N-dIns), noncytopathic; format: cell-based, bovine viral diarrhea virus
Cytotoxicity assay = details: human
Cytotoxicity (Table 10) [8] = details: dog, MDCK cells
Cytotoxicity (Table 10) [9] = details: human, A549 cells
[10] = Cytotoxicity testing by NIH program; details: human and other mammalian
[11] = Cytotoxicity (cell proliferation) assay; details: human
[12] = Cytotoxicity (cell proliferation) assay; details: rat, H9c2 myocardial cells
[13] = Clinical pharmacokinetics of mCyd after oral val-mCyd; details: human, plasma, mCyd in plasma; for AUC(0-inf): AUC0-inf (Mean); for Cmax: Cmax (Mean); for Tmax: Tmax (Mean); for half-life: t1/2 (Mean)
[14] = Cytotoxicity on uninfected cells in parallel to the CPA; details: bovine, uninfected MDBK kidney cells
[15] = Cellular DNA or RNA synthesis ([3H]-thymidine / [3H]-uridine incorporation); details: human, HepG2 cells
[16] = 50 mg, val-mCyd 50 mg PO, Day 1
[17] = 50 mg, val-mCyd 50 mg PO, Day 15
[18] = 100 mg, val-mCyd 100 mg PO, Day 1
[19] = 100 mg, val-mCyd 100 mg PO, Day 15

## CC1(O)C(O)C(CO)OC1n1ccc(N)nc1=O (stereo not drawn) [mCyd, 4-Amino-1-(3,4-dihydroxy-5-hydroxymethyl-3-methyl-tetrahydro-furan-2-yl)-1H-pyrimidine-2-one]
[1]; Bovine viral diarrhea virus isolates and strains, yield reduction, BVDV NADL cp, MDBK
  EC50: 2.77 ± 1.16 µM
[1]; Bovine viral diarrhea virus isolates and strains, yield reduction, BVDV NADL cp, MDBK, read-out: Antiviral Efficacy EC90
  EC90: 4.8 ± 1.55 µM
[1]; yield reduction assay, circa 20 μM
  suppression of de novo BVDV production: up to 6 log10
[1]; yield reduction, BVDV NADL cp, MDBK
  Antiviral Efficacy EC4 log: 13.9 ± 3.07 μM
[2]
  Antiviral Efficacy EC4 log: 6.03 ± 1.41 μM
[2]; Bovine viral diarrhea virus isolates and strains
  EC50: 0.3 ± 0.07 µM
[2]; Bovine viral diarrhea virus isolates and strains, read-out: Antiviral Efficacy EC90
  EC90: 0.87 ± 0.18 µM
[3]
  EC50: 0.68 µM
[3]; read-out: Antiviral Efficacy EC90
  EC90: 1.73 µM
DENV-4 in BHK cells
  EC50: 59 µM
YFV
  EC50: 54 µM
CVB-2; Table 8c, read-out: EC50 CVB-2
  EC50: 11 µM
CVB-2; read-out: CVB-2 (Table 8b)
  EC50: 12 µM
CVB-3
  EC50: 9 µM
CVA-9
  EC50: 26 µM
EBV (Daudi)
  EC50: 25.5 µg/mL (≈ 99.1 µM)
MCMV (MEF)
  EC50: > 0.8 µM
[4]
  EC50: > 200 µM
Cytotoxicity (Table 10) [5]
  CC50: > 50 µg/mL
West Nile virus
  EC50: 46 to 97 µM
[6]; read-out: range of EC50 values against BVDV
  EC50: 0.3 to 2.8 µM
[6]; read-out: range of EC90 values against BVDV
  EC90: 0.87 to 4.8 µM
[7]; 8 μM, after two passages, re-emerged by passage 6
  virus detection under prolonged treatment: no longer detectable
[7]; 16 μM, from more than 6 logs of virus per ml, within two cell passages
  virus production: undetectable levels
Cytotoxicity assay; CC50, HFF, HCMV row
  CC50: 67 to 73 µg/mL
Cytotoxicity assay; CC50, HFF, HSV-1 row
  CC50: > 100 µg/mL
Cytotoxicity assay; CC50, HFF, HSV-2 row
  CC50: > 100 µg/mL
Cytotoxicity assay; CC50, HFF, VZV row
  CC50: 67.8 µg/mL
Cytotoxicity assay; CC50, rapidly proliferating HFF
  CC50: 16.9 µM
Cytotoxicity (Table 10) [8]; Influenza A/H1N1 row
  CC50: > 200 µM
Cytotoxicity (Table 10) [8]; Influenza A/H3N2 row
  CC50: 45 to 65 µM
Cytotoxicity (Table 10) [8]; Influenza B row
  CC50: 55 to 140 µM
Cytotoxicity (Table 10) [9]
  CC50: > 200 µM
[10]
  CC50: > 50 µM
[11]
  CC50: > 200 µM
[11]; HepG2 hepatoma cells on collagen-coated plates, CC50, HepG2 grown on collagen coated plates for 4 or 10 d
  CC50: ≥ 200 µM
[11]; HepG2 hepatoma cells, CC50, HepG2, rapid cell division
  CC50 at 4 days: 161 µM
[12]
  CC50 at 4 days: > 250 µM
[13]; [16]
  AUC(0-inf): 3120 ng·h/mL
  Cmax: 428 ng/mL
  Tmax: 2.5 h
  half-life: 4.1 h
[13]; [17]
  AUC(0-inf): 3170 ng·h/mL
  Cmax: 363 ng/mL
  Tmax: 2.2 h
  half-life: 4.6 h
[13]; [18]
  AUC(0-inf): 6900 ng·h/mL
  Cmax: 982 ng/mL
  Tmax: 2.6 h
  half-life: 4.4 h
[13]; [19]
  AUC(0-inf): 7670 ng·h/mL
  Cmax: 1050 ng/mL
  Tmax: 2 h
  half-life: 4.2 h
[14]
  CC50 at 4 days: 38 ± 9 µM
[15]; probe [3H]-thymidine, CC50 DNA ([3H]Thymidine), 50% reduction of thymidine incorporation into cellular DNA
  CC50: 112 µM
[15]; probe [3H]-uridine, CC50 RNA ([3H]Uridine), 50% reduction of uridine incorporation into cellular RNA
  CC50: 186 µM
